Assay [1] deals with goblet cell formation in HBECs. Put plainly: Goblet cell formation with Compound A in basolateral medium, 45M1 and AB/PAS staining. It is filed as cell-based, human. The procedure:
The siRNA duplexes are transfected into HBECs using […]. Transfection medium is prepared by mixing OPTI-MEM® I reduced serum medium (Invitrogen Corp.), siRNA duplex (5× final concentration) and Lipofectamine 2000™ (5× final concentration), incubating at room temperature for 30 minutes, then diluting 1:5 in antibiotic free differentiation medium (DIFF-AB medium; bronchial epithelial basal medium and Dulbeccos modified eagles medium [50:50] plus bronchial epithelial growth medium SingleQuots [bovine pituitary extract, insulin, hydrocortisone, all-trans retinoic acid, transferrin, epinephrine, tri-iodothyronine and human epidermal growth factor at the recommended concentrations, but no tri-iodothyronine and gentamycin/amphotericin B], all obtained from BioWhittaker) prior to addition to HBECs. For these experiments an abbreviated version of the HBEC model is used in which HBECs are maintained as submerged cultures for 3 days and then transferred to ALI for 6 days. Cells from a passage 2 (P2) stock of HBEC donor 2F1578 are cultured as described in Atherton et al. Am. J. Physiol. Lung Cell Mol. Physiol. (2003) 285: L730-L739 to approximately 85% confluence before harvesting for transfection. After trypsinisation and recovery by centrifugation, cells are resuspended at a density of 16.5×10^4 cells per ml in DIFF-AB medium containing siRNA duplex (10 nM) and Lipofectamine 2000™ (1 μl per ml) and seeded onto 12 well Transwell Clear inserts. One ml of HBEC/DIFF-AB medium/siRNA/lipofectamine 2000™ mix is deposited onto each insert and 1 ml of DIFF-AB medium is added to the basolateral chamber of each insert. After 24 hours (day 1 of submerged culture), all media is aspirated (apically and basolaterally) and replaced with 0.5 ml apically and 1 ml basolaterally of DIFF-AB medium containing 50 μg per ml gentamycin but no amphotericin B (DIFF-AB+G). On day 3, DIFF-AB+G medium is aspirated from the apical and basolateral surfaces and HBECs are cultured at ALI with DIFF-AB+G medium containing 1 ng per ml IL13. All cells are incubated at 37° C., 5% CO2 and 95% relative humidity. The basolateral medium is aspirated at days 5 and 7 and replaced with 1 ml DIFF-AB+G medium containing IL13. In addition the apical surface is rinsed with 0.5 ml phosphate buffered saline (PBS) to remove accumulated cell debris/mucus. Cells are harvested for total RNA extraction at days 3, 5, 7 and 9 as described above, and for goblet cell analysis by histology at day 9. For histology, inserts are fixed by the addition of 0.5 ml 10% neutral buffered formalin (NBF) to the apical surface followed by 1 ml NBF to the basolateral surface. After 24 hours of fixation the inserts are bisected and processed to RALwax through graded industrial methylated spirit (IMS) and chloroform. Both halves of the insert are embedded on edge using fresh RALwax. The paraffin blocks are sectioned at […] and stained with 45M1 antibody (an anti-MUCSAC antibody obtained from Lab-Vision Neomarkers) and alcian blue/haematoxylin and eosin (AB/H&E) according to standard histological protocols to enable detection of mucin and discrimination of individual cells by nuclear staining. The stained slides are examined microscopically.
[…] The effect on goblet cell formation is examined histologically by 45M1 and AB/PAS staining per unit length of epithelium.
A modest effect at 10 μM is seen, with no effect at 0.1 and 1 μM.

For assay [2], the system named is mucus secretion in differentiated HBECs. Nature of the assay: ATP-γS-induced mucin secretion in differentiated HBECs, enzyme-linked lectin assay (ELLA). It is filed as cell-based, human. The protocol:
The effect of siRNA knockdown of CTSC expression on mucin secretion in differentiated HBECs is examined using the CTSC SMARTPOOL at different concentrations (0.3-10 nM). Adenosine triphosphate is used as a mucin secretagogue and secreted mucin is measured using an enzyme-linked lectin assay (ELLA; Kemp, Sugar and Jackson Am. J. Respir. Cell Mol. Biol. (2004) 31: 446-455). HBECs (16.5×10^4 cells per insert from donor 2F1S78) are transfected and cultured using the 9 day differentiation model as described in Example 2. At day 9 (6 days ALI) HBEC inserts are exposed to 100 μM ATP-γS for 10 minutes and supernatants are removed for analysis by ELLA. ATP-γS-induced mucus secretion is inhibited at all CTSC siRNA SMARTPOOL concentrations, but is unaffected by either cyclophilin B siRNA or Lipofectamine alone.
The effect of Compound A on mucus secretion in the 9 day model is examined by adding the compound at various concentrations (0.1-10 μM) to the apical surface in minimal medium containing 0.1% dimethyl sulphoxide (DMSO) and incubating for 30 minutes at 37° C., followed by 10 minutes exposure to 100 μM ATP-γS.

On to `CCCS(=O)(=O)Nc1ccc(Cc2cc3cnc(C#N)nc3n2CC(C)(C)C)cc1` [Compound A, propane-1-sulfonic acid {4-[2-cyano-7-(2,2-dimethyl-propyl)-7H-pyrrolo[2,3-d]pyrimidin-6-ylmethyl]-phenyl}-amide], for which the “45M1 and AB/PAS staining per unit length of epithelium” value in assay [1] (Table 6, 9 day model (6 days ALI), 0.1 uM + IL13) is on record as “no effect”; in assay [1] (Table 6, 9 day model (6 days ALI), 0.1 uM + IL13, listed as Compd A) it was 2.533; in assay [1] (Table 6, 9 day model (6 days ALI), 1 uM + IL13), “no effect”; in assay [1] (Table 6, 9 day model (6 days ALI), 1 uM + IL13, listed as Compd A), 2.621; in assay [1] (Table 6, 9 day model (6 days ALI), 10 uM + IL13), “modest effect”; in assay [1] (Table 6, 9 day model (6 days ALI), 10 uM + IL13, listed as Compd A), 1.424. Also, the “45M1 and AB/PAS staining per unit length of epithelium” value in assay [1] (Table 6, 9 day model (6 days ALI), 10 uM, no IL13) is 0.300; in assay [1] (Table 7, 11 days at ALI, 0.1 uM + IL-13 1 ng/ml) it was 3.609; in assay [1] (Table 7, 11 days at ALI, 1 uM + IL-13 1 ng/ml) it was 3.700; in assay [1] (Table 7, 11 days at ALI, 10 uM + IL-13 1 ng/ml), “greater inhibition”; in assay [1] (Table 7, 11 days at ALI, 10 uM + IL-13 1 ng/ml, listed as Compd A) it was 0.886; in assay [1] (Table 7, 11 days at ALI, 10 uM, no IL-13) it was 0.153. Further, the “mucus secretion (Vehicle = 100.00)” value is listed as 203.51 in assay [2] (Compd A (0.1 μM), 30 minutes, then 100 μM ATP-γS 10 minutes); 88.99 in assay [2] (Compd A (10 μM) only, no ATP, 30 minutes apical, 9 day model); 120.18 in assay [2] (Compd A (10 μM), first column so headed, 30 minutes, then 100 μM ATP-γS 10 minutes); 177.02 in assay [2] (Compd A (10 μM), second column so headed, 30 minutes, then 100 μM ATP-γS 10 minutes). Also, in assay [2] (Compound A 0.1-10 μM, 100 μM ATP-γS), the “mucus secretion (in words)” value is listed as “dose-dependently inhibits”.
